In ChEMBL document CHEMBL1201862, “PubChem BioAssay data set” (2004):
Calls of active or inactive are those of the source.

Experiments:
Major prion protein = Major prion protein (Homo sapiens, UniProt P04156); type: functional, cell-based
cells [1] = experiment: cells
BJ [2] = experiment: BJ-TERT fibroblast viability loss – cell-based, RAS-independent, luminescence, dose response (AID 1933); type: functional; settings: Homo sapiens
[3] = Luminescence Cell-Based Dose Response HTS to Identify Inhibitors of 5'UTR Stem-Loop Driven Prion Protein mRNA Translation in H4 Neuroglioblastoma Cells. [Related pubchem assays: 1827 (Project Summary), 1813 (Primary HTS)]; type: functional
[4] = alpha-synuclein stem-loop luciferase translation blockers – H4 neuroglioma cells, luminescence, confirmation (AID 1988); type: functional, cell-based
BJ [5] = experiment: cells; type: functional, cell-based; settings: Homo sapiens
BJ [6] = experiment: BJ-TERT-LT-ST fibroblast viability loss – cell-based, RAS-independent, luminescence, dose response (AID 1935); type: functional; settings: Homo sapiens;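 further: BJ fibroblasts immortalized with TERT plus LT and ST oncogenes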
[7] = DRD fibroblast viability loss – cell-based, non-viral oncogenic, luminescence, dose response (AID 1934); type: functional; settings: Homo sapiens
[8] = A549 cell cytotoxicity, dose response, cytotoxicity control, plate reader, cherry-pick, antagonist series (AID 743412); type: functional, cell-based
[9] = toxicity toward HepG2 liver cells – cell-based, plate reader, cherry-pick, antagonist series, cytotoxicity control, dose response (AID 743416); type: functional
[10] = blockers of bursicon-stimulated LGR2 cAMP reporter – cell-based, HEK293, CRE-luciferase reporter, cherry pick, set 2, dose response (AID 743343); type: functional;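 further: transfected cells were stimulated with diluted bursicon conditioned medium after compound addition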
[11] = blockade of melanocortin 4 receptor signaling – cell-based, plate reader, cherry pick, counter-screen for LGR2 antagonist project, dose response (AID 743444); type: functional;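 further: transfected HEK 293 cells stimulated with alpha-MSH peptide; potency of inhibitors of the alpha-MSH evoked signal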
[12] = viability loss in HEK293 cells – cell-based, plate reader, cherry-picked samples, cytotoxicity control, dose response (AID 743446); type: functional
[13] = blockers of HIV-1 envelope-mediated cell-cell fusion – cherry-pick, dose response (AID 652057); type: functional, cell-based
[14] = viability loss in CEM21 cells – cell-based, CellTiter-Glo luminescence, cherry-picked, cytotoxicity control for viral fusion inhibitor project, dose response (AID 652042); type: functional;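 further: potency for signal decrease meaning cytotoxicity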
[15] = off-target signal loss in HeLa-CEM21 co-culture – HeLa F-luc CTL cells, cherry-picked, counter-screen for HIV-1 Env fusion inhibitor project, dose response (AID 652040); type: functional, cell-based;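 further: potency for signal decrease marking cytotoxic or nonspecific inhibition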
[16] = biological target: Photoreceptor-specific nuclear receptor (Homo sapiens, UniProt Q9Y5X4); type: functional, cell-based;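 further: CHO-S cells with Gal4-NCOR and VP16-NR2E3 two-hybrid luciferase reporter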
[17] = biological target: SWI/SNF-related matrix-associated actin-dependent regulator of chromatin subfamily A member 2 (Homo sapiens, UniProt P51531); experiment: Luminescence-based cell-based high throughput dose response assay to identify activators of the function of SWI/SNF related, matrix associated, actin dependent regulator of chromatin, subfamily a, member 2 (SMARCA2, BRM).; type: functional
[18] = Counterscreen for activators of the function of SWI/SNF related, matrix associated, actin dependent regulator of chromatin, subfamily a, member 2 (SMARCA2, BRM): Luminescence-based cell-based high throughput dose response assay to identify non-selective compounds using the VP16 reporter assay.; type: functional
Vero = experiment: viability loss in Vero cells – cell-based, plate reader, cherry-pick samples, cytotoxicity control, dose response (AID 687020); type: functional; settings: Chlorocebus sabaeus
[19] = biological target: T1, Methionyl-tRNA synthetase, putative (Trypanosoma brucei brucei, UniProt Q38C91); type: functional, Trypanosoma brucei brucei strain 927/4 GUTat10.1
T1 sequence (Q38C91 whole entry): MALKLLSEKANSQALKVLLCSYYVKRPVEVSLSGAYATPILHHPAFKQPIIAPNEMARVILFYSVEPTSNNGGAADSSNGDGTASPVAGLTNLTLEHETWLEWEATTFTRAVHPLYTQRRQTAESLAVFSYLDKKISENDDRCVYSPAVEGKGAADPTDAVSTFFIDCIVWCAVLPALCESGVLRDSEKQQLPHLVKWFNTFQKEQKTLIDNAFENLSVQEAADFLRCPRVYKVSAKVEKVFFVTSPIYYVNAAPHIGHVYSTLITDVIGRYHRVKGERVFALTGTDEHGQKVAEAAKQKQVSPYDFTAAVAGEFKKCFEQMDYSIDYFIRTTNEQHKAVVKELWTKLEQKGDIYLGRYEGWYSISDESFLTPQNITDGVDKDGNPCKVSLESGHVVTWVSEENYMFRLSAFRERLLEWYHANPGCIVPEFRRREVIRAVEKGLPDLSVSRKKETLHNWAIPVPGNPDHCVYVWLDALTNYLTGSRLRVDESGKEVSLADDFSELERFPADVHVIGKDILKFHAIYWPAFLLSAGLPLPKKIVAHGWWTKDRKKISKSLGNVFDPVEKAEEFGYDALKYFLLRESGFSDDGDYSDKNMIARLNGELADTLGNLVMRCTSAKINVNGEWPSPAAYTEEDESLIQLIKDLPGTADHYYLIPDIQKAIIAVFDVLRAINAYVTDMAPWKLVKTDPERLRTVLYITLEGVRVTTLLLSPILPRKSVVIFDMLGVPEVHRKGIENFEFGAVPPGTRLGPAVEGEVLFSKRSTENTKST

[20] = Counterscreen for inhibitors of Trypanosoma brucei methionyl tRNA synthetase (MetRS): Luminescence-based cell-based high throughput dose response assay to identify compounds that are cytotoxic to Jurkat human T lymphocyte cells.; type: functional
[21] = biological target: T1, Methionyl-tRNA synthetase, putative; type: functional, Trypanosoma brucei brucei strain 927/4 GUTat10.1; remark: listed apart in the source
fMet-Leu-Phe receptor = biological target: T2, fMet-Leu-Phe receptor (Homo sapiens, UniProt P21462); experiment: formyl peptide receptor binders – dose response (AID 519); type: functional
T2 sequence (P21462 whole entry): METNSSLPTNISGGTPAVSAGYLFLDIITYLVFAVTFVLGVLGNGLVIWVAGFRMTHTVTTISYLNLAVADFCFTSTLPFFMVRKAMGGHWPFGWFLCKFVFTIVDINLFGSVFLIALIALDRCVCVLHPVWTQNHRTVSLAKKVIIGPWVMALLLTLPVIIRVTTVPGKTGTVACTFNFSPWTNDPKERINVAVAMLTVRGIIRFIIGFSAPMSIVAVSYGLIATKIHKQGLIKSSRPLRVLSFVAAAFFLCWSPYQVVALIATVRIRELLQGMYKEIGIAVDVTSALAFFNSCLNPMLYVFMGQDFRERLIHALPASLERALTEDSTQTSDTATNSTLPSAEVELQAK

[22] = NIH-3T3 fibroblast cytotoxicity, dose response, cytotoxicity control, cell-based, fluorescence, Alamar Blue, secondary assay (AID 2327); type: functional;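 further: NIH-3T3 mouse fibroblasts cultured with fluconazole at 8 µg/mL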
[23] = test system: Streptococcus sp. 'group A'; experiment: Streptococcus pyogenes SK(-)GAS viability under kanamycin – luminescence, BacTiterGlo, confirmation, counter-screen for streptokinase expression inhibitor project, dose response (AID 1900); type: functional, organism-based
[24] = fluconazole-exposed Candida albicans growth modulators – fluorescence, retest, confirmation (AID 2467); type: functional, cell-based
Streptococcus = experiment: GAS UMAA2166 growth inhibition – luminescence, BacTiterGlo, counter-screen for streptokinase expression inhibitor project, dose response (AID 1915); type: functional, organism-based;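 further: potency for reduction of bacterial viability or growth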
[25] = blockers of HIV-1 ZM109 envelope-driven cell-cell fusion – HeLa effector, CEM target cells, luciferase, cherry-pick, dose response (AID 652058); type: functional, cell-based;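 further: luciferase signal from HIV-1 Env mediated cell-cell fusion of effector and target cells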
[26] = HIV-1 AD8 envelope cell-cell fusion blockers – cherry-pick, dose response (AID 652062); type: functional, cell-based;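 further: luciferase signal from cell-cell fusion driven by HIV-1 clade B AD8 Env; potency is for inhibitors of fusion seen as a drop in luminescence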
[27] = biological target: T3, Heat shock factor protein 1 (Mus musculus, UniProt P38532); experiment: decrease of HSF1-responsive luciferase luminescence – cell-based, NIH3T3, dose retest, confirmation (AID 2382); type: functional;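 further: NIH3T3 fibroblasts with HSF1-driven luciferase reporter stressed by proteasome inhibitor MG132; luminescence from HSF1-driven luciferase expression after 8 hours of MG132 stress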
T3 sequence (P38532 whole entry): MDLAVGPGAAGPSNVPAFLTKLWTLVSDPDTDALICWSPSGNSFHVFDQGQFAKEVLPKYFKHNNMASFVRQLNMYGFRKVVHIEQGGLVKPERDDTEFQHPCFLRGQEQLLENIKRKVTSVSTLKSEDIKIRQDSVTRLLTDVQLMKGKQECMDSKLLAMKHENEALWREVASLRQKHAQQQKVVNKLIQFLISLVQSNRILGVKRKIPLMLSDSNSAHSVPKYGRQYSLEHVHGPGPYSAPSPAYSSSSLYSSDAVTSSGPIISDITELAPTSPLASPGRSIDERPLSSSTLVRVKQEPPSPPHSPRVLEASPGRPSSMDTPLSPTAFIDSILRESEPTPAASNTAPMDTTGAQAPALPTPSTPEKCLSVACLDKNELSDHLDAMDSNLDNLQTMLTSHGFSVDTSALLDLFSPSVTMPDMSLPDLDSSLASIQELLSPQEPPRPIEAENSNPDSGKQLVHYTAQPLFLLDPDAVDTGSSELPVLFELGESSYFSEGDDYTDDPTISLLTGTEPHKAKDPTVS

INS1 = experiment: INS-1E survival protection against cytokine death – cell-based, luminescence, retest, dose response (AID 449756); type: functional; settings: Rattus norvegicus;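 further: cell death triggered by IL-1 beta plus TNF-alpha plus IFN-gamma mixture; protective hits raise ATP signal compared with cytokine alone wells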
Paired box protein Pax-8 = Paired box protein Pax-8 (Homo sapiens, UniProt Q06710); experiment: PAX8 transcriptional activity inhibition in RMG-I – RMG-I cells, luciferase, cherry-pick, dose response (AID 687027); type: functional, cell-based;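 further: luciferase reporter driven by Pax8 target thyroperoxidase promoter measured by SteadyGlo luminescence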
[28] = OVCAR8 cell viability loss – plate reader, dry powder samples, PAX8 project, dose response (AID 743197); type: functional, cell-based; settings: OVCAR-8
[29] = T. cruzi growth inhibition in host cells, dose response, cell-based, plate reader, dry powder, set 2 (AID 652275); type: functional
cells [30] = type: functional

CC(=O)c1sccc1NC(=O)c1ccccc1C(=O)O
IC50 (Major prion protein): 3.09 µM (active)
IC50 (cells [1]): > 138 µM (inactive)

Cc1cccc(NC(=O)c2onc3c2CCCC3)n1
EC50 (BJ [2]): 18 µM (active)
EC50 [3]: 8.8 µM (active)
EC50 [4]: 6.78 µM (active)
EC50 (BJ [5]): 15 µM (active)
EC50 (BJ [6]): > 150 µM (inconclusive)
EC50 [7]: 13.3 µM (active)
AC50 [8]: 19.6 µM (active)
AC50 [9]: 19.4 µM (active)
AC50 [10]: 3.23 µM (active)
AC50 [11]: 5.51 µM (active)
AC50 [12]: 15.9 µM (active)

Cc1cccc(C)c1N(CC(O)Cn1c2ccccc2c2ccccc21)S(C)(=O)=O (stereo not given)
AC50 [13]: 17.1 µM (active)
AC50 [14]: 60.4 µM (active)
AC50 [15]: > 70 µM (inactive)

COc1ccc2c(CC(=O)Nc3ncc(C)s3)coc2c1
IC50 [16]: 1.11 µM (active)
EC50 [17]: > 91.2 µM (inactive)
EC50 [18]: > 91.2 µM (inactive)

NC(=O)c1cc(Cl)cn(-c2ccccc2)c1=O
AC50 (Vero): 33.7 µM (active)

O=C(COC(=O)CCCOc1ccc(Cl)cc1Cl)Nc1cccc(Cl)c1
IC50 [19]: 9.07 µM (active)
IC50 [20]: 83.3 µM (inactive)
IC50 [21]: 16.5 µM (inactive)

O=C(Nc1ccccc1)Nc1nnc(COc2ccccc2F)s1
IC50 [19]: 42.9 µM (inactive)
IC50 [20]: 71 µM (inactive)
IC50 [21]: 35.7 µM (inactive)

COc1ccc(C(C(=O)NC2CCCC2)N2CCc3ccccc32)cc1 (stereo not given)
AC50 (Vero): 29.5 µM (active)

COc1ccc(C(=O)C2=C(O)C(=O)N(Cc3ccco3)C2c2ccc(OC)cc2OC)cc1 (stereo not given)
Ki (fMet-Leu-Phe receptor): > 66.7 µM (inactive)

CC1CCCCN1S(=O)(=O)c1ccc(C(=O)Nc2nnc(-c3cccs3)o2)cc1 (stereo not given)
EC50 [22]: > 150 µM (inactive)
EC50 [23]: 2.05 µM (active)
EC50 [24]: 1.11 µM (active)
EC50 (Streptococcus): 4.49 µM (active)
AC50 [13]: 32.8 µM (active)
AC50 [14]: 35.7 µM (active)
AC50 [25]: 14.6 µM (active)
AC50 [26]: 16.6 µM (active)

O=C(Oc1c(CN2CCOCC2)cc(Cl)c2cccnc12)c1ccccc1Br
EC50 [22]: 135 µM (active)
EC50 [27]: 31.3 µM (active)
EC50 [24]: 3.49 µM (active)
AC50 (INS1): 6.56 µM (active)
EC50 [17]: > 91.1 µM (inactive)
EC50 [18]: > 91.1 µM (inactive)

N=C(NOC(=O)COc1ccc2ccccc2c1Br)c1ccccn1
IC50 (Major prion protein): 4.71 µM (active)
IC50 (cells [1]): > 138 µM (inactive)

Nc1ncnc2c(C3OC(CO)C(O)C3O)scc12 (stereo not given)
AC50 [13]: 0.322 µM (active)
AC50 [14]: < 0.26 µM (active)
AC50 [25]: 2.04 µM (active)
AC50 (Paired box protein Pax-8): < 0.26 µM (active)
AC50 [15]: 3.78 µM (active)
AC50 [26]: 3.45 µM (active)

O=C(C[C@@H]1CC[C@H]2[C@@H](COC[C@@H](O)CN2Cc2cccc(C(F)(F)F)c2)O1)NCc1ccc(F)cc1
AC50 (Paired box protein Pax-8): 27.9 µM (active)
AC50 [28]: 51.7 µM (active)

O=C1c2ccccc2S(=O)(=O)c2cc(N3CCN(C(=O)c4ccccc4)CC3)ccc21
AC50 [8]: 23.5 µM (active)
AC50 [9]: > 52 µM (inactive)
AC50 [10]: 20.8 µM (active)
AC50 [11]: 22.3 µM (active)
AC50 [12]: > 52 µM (inactive)

CC(C)N1C[C@@H](CN(C)Cc2ccc(Cl)cc2)Oc2c(NC(=O)c3ccncn3)cccc2C1=O
AC50 [29]: 0.00548 µM (active)

CN(C)C(=O)c1cccc(-c2ccc([C@@H]3[C@@H](CO)N4CCCCN(C(=O)C5CCC5)C[C@H]34)cc2)c1
AC50 [29]: 14.4 µM (active)

N/N=C(/Cc1nc2ccccc2[nH]1)c1ccc([N+](=O)[O-])cc1
IC50 (cells [30]): 19 µM (active)
IC50 [19]: 6.69 µM (active)
IC50 [20]: 83.3 µM (inactive)
IC50 [21]: 3.17 µM (active)

CCc1c(C)[nH]c2c(C#N)c(C)nn2c1=O
Ki (fMet-Leu-Phe receptor): 21.7 µM (inactive)

O=C(O)c1cc(=O)c2c(OCC(O)COc3cccc4oc(C(=O)O)cc(=O)c34)cccc2o1 [CROMOLYN SODIUM]
AC50 (Vero): 34.3 µM (active)
